# Experiments:
# [1] = cited from earlier work
# [2] = system: FaDu Head and Neck xenografts; assay: Diffusion of Hoechst evaluated by fluorescent imaging of tumor cryo-sections; format: in vivo, NMRI nude mice
# Description: Formulations of lactose isobutyrate:X-SAIB (contrast agent): EtOH and DMSO with composition of 1)75:5:15:5, 2) 77, 5:5:12, 5:5 and 2) 80:5:10:5 were prepared along with formulations of lactose acetate:propionate(1:1):X-SAIB(contrast agent): EtOH and DMSO in 75:5:15:5 ratio. All of the gel formulations were prepared with ˜0.7‰ of Hoechst 33342, as model of a DNA binding drug. 25-30 uL of each gel was injected into FaDu Head and Neck xenografts grown on the flank of NMRI nude mice (groups of 4-8 mice were injected with each formulation). Release and gel-stability was monitored for a maximum of 5-6 days. 2-3 mice were sacrificed at predetermined times (day 1, middle of the experimental period and at the end of the experimental period). The tumors were excised and snap-frozen with liquid N2 to preserve the tumor tissue for histological examination. Stability of the radiopaque gel-depots was evaluated by micro-CT imaging (see FIG. 18). Only the lactose isobutyrate gel was subjected to X-rays, to evaluate the effect of radiation on gel-stability. […] Diffusion of Hoechst was evaluated by fluorescent imaging of the tumor cryo-sections (see FIG. 19).
# [3] = Gel formation after injection of sugar ester formulations into PBS buffer; format: physicochemical; details: for injection into PBS and gel-formation: formulated with 35% and 20% propylene carbonate, respectively
# Description: The gel-forming properties of the synthesized esters containing only small percentages of organic solvents and/or triglycerides were inspected in the following experiments
# ˜210 mg of the following sugar ester formulations: α,β Lactose octaacetate: α,β Lactose octaisobutyrate 5:1, α,β Lactose octaacetate: α,β Lactose octaisobutyrate 2:1, α,β Lactose octaacetate: α,β Lactose octaisobutyrate 1:1, α,β Lactose octaacetate: α,β Lactose octapropionate 1:1, α,β Lactose octaacetate: α,β Lactose octapropionate 1:5, α,β Lactose octaacetate: α,β Lactose octapropionate 1:3, α,β Lactose octapropionate: α,β Lactose octaisobutyrate 1:1, α,β Lactose octaacetate: α,β Lactose octaisobutyrate 1:5, α,β Lactose octapropionate, α,β Lactose octaisobutyrate: α,β Lactose octaacetate 0.5:0.5:5, α,β Lactose octaisobutyrate: α,β Lactose octaacetate 3:1, Trehalose octaacetate:Trehalose octapropionate 1:1, Trehalose octapropionate, Trehalose octaisobutyrate, Raffinose undecaacetate:Raffinose undecapropionate 1:1, Raffinose undecaisobutyrate, β-maltose octaisobutyrate and α,β-D-glucosamine pentapropionate were mixed with 20 wt % EtOH by heating to ˜37° C., vortexing and ultrasonication. ˜50-80 uL of the resulting formulations were then injected into 2 mL of PBS buffer using 25 G needles.
# ˜210 mg of the following sugar ester formulations: α,β Lactose octaacetate, α,β lactose octapropionate, α,β Lactose octaacetate: α,β lactose octapropionate 1:1, α,β lactose octaisobutyrate, α,β maltose octapropionate, β maltose octapropionate, α-D-glucosamine pentapropionate, α, β-D-glucosamine pentapropionate, β maltose octapropionate: α-D-glucosamine pentapropionate 1:1 and α-D-glucosamine pentaisobutyrate were mixed with 20 wt % NMP or DMSO by heating to ˜37° C., vortexing and ultrasonication. ˜50-60 uL of the resulting formulations were injected into PBS. With maltose octapropionate, glucosamine pentapropionate and lactose octaacetate alternative wt % of solvents were also tried (i.e. 25-40 wt % of the before mentioned solvents). […] In case of α,β-maltose propionate and α,β-D-glucosamine pentapropionate, injection into PBS and gel-formation are also successful when formulated with 35% and 20% propylene carbonate, respectively (examples shown in FIG. 1). Pure α-D-Glucosamine esters and hydrophilic maltose ester analogues have a tendency to form hard amorphous solids with some crystallinity after injection into PBS—so although ˜20 wt % solvent is possible to inject with difficulty, gels of this type containing ˜25-35 wt % solvent are easier to handle.
# ˜210 mg of α,β Lactose octaacetate: α,β Lactose octapropionate 1:1 or α,β Lactose octaisobutyrate were mixed with 2, 5 or 10 wt % glycerol trioctanoate, 5% DMSO and EtOH was added to give 20 wt % solvent in total for all formulations. In case of lactose octaisobutyrate, formulations containing 15 wt % glycerol trioctanoate and 5% DMSO, 30 wt % glycerol trioctanoate and 5% NMP/DMSO or 40 wt % glycerol trioctanoate alone were also made. The solutions were mixed by heating to ˜37° C., vortexing and ultrasonication. ˜40-60 uL of the resulting formulations were injected into PBS.
# [4] = 20 wt % EtOH, ~50-80 uL injected into 2 mL PBS buffer, 25 G needles
# [5] = 20 wt % NMP or DMSO (25-40 wt % also tried for some), ~50-60 uL injected into PBS
compound,measurement,setting,value
O=C([O-])c1ccccc1-c1c2cc(Br)c(=O)c(Br)c-2oc2c(Br)c([O-])c(Br)cc12.[Na+].[Na+] [Eosin Y],Log P,[1],~6.4
CCOc1ccc(-c2nc3ccc(-c4nc5ccc(N6CCN(C)CC6)cc5[nH]4)cc3[nH]2)cc1 [Hoechst 33342],release of Hoechst into the tumors,"[2]; from gel depots, ~0.7‰ Hoechst 33342, tumor cryo-sections",confirmed release of Hoechst into the tumors
same,distribution of the fluorophore in the tumor,[2]; over a period of 6 days,distribution of the fluorophore across most of the tumor area
"CC(C)C(=O)OCC1O[C@H](OCC2O[C@@H](O[C@]3(COC(=O)C(C)C)O[C@H](COC(=O)C(C)C)[C@@H](OC(=O)C(C)C)[C@H]3OC(=O)C(C)C)C(OC(=O)C(C)C)[C@@H](OC(=O)C(C)C)[C@@H]2OC(=O)C(C)C)C(OC(=O)C(C)C)[C@@H](OC(=O)C(C)C)[C@H]1OC(=O)C(C)C (stereo partly drawn) [Raffinose undecaisobutyrate, Raffinose Undecaisobutyrate]",gel formation upon injection,[3]; [4],formed gels upon injection
"CCC(=O)OCC1O[C@@H](O[C@H]2OC(COC(=O)CC)[C@@H](OC(=O)CC)[C@H](OC(=O)CC)C2OC(=O)CC)C(OC(=O)CC)C(OC(=O)CC)[C@H]1OC(=O)CC (stereo partly drawn) [Trehalose octapropionate, Trehalose Octapropionate]",gel formation upon injection,[3]; [4],formed gels upon injection
O=C1OC2(c3ccc(O)cc3Oc3cc(O)ccc32)c2ccccc21 [fluorescein free acid],Log P,[1],~1.8
NNC(=O)c1ccncc1 [isoniazide],Log P,[1],~−0.8
Nc1n[n+]([O-])c2ccccc2[n+]1[O-] [tirapazamine],Log P,[1],~−0.06
"CC(=O)OC[C@H]1O[C@@H](O[C@H]2[C@H](OC(C)=O)[C@@H](OC(C)=O)C(OC(C)=O)O[C@@H]2COC(C)=O)[C@H](OC(C)=O)[C@@H](OC(C)=O)[C@H]1OC(C)=O (stereo partly drawn) [α,β Lactose octaacetate, α,β-Lactose Octaacetate]",injectability,[3]; 20 wt % DMSO or 20 wt % propylene carbonate,this occurs with difficulty due to high viscosity
same,gel formation upon injection,[3]; [5],formation of an amorphous solid (gel) was seen
"CC(C)C(=O)OC[C@H]1O[C@@H](O[C@H]2[C@H](OC(=O)C(C)C)[C@@H](OC(=O)C(C)C)C(OC(=O)C(C)C)O[C@@H]2COC(=O)C(C)C)[C@H](OC(=O)C(C)C)[C@@H](OC(=O)C(C)C)[C@H]1OC(=O)C(C)C (stereo partly drawn) [α,β lactose octaisobutyrate, α,β-Lactose Octaisobutyrate]",gel formation upon injection,"[3]; 2-40 wt % glycerol trioctanoate, with DMSO/NMP/EtOH, ~40-60 uL injected into PBS",formation of an amorphous solid (gel) was seen
same,gel formation upon injection,[3]; [5],formation of an amorphous solid (gel) was seen
same,appearance of the injected solid,"[3]; pure triglyceride used as solvent (40 wt % glycerol trioctanoate alone), up to 24 h after injection","very soft, transparant and could easily be manipulated in shape"
"CCC(=O)OC[C@H]1O[C@@H](O[C@H]2[C@H](OC(=O)CC)[C@@H](OC(=O)CC)C(OC(=O)CC)O[C@@H]2COC(=O)CC)[C@H](OC(=O)CC)[C@@H](OC(=O)CC)[C@H]1OC(=O)CC (stereo partly drawn) [α,β lactose octapropionate, α,β-Lactose Octapropionate]",gel formation upon injection,[3]; [5],formation of an amorphous solid (gel) was seen
"CCC(=O)OCC1OC(OC(=O)CC)C(OC(=O)CC)[C@@H](OC(=O)CC)[C@@H]1O[C@H]1OC(COC(=O)CC)[C@@H](OC(=O)CC)[C@H](OC(=O)CC)C1OC(=O)CC (stereo partly drawn) [α,β maltose octapropionate, α,β-Maltose Octapropionate]",gel formation upon injection,[3]; [5],formation of an amorphous solid (gel) was seen
same,injection into PBS and gel-formation,[3],successful
"CCC(=O)NC1C(OC(=O)CC)OC(COC(=O)CC)[C@@H](OC(=O)CC)[C@@H]1OC(=O)CC (stereo partly drawn) [α,β-D-glucosamine pentapropionate, α,β-D Glucosamine Pentapropionate]",gel formation upon injection,[3]; [4],formed gels upon injection
same,gel formation upon injection,[3]; [5],formation of an amorphous solid (gel) was seen
same,injection into PBS and gel-formation,[3],successful
"CC(C)C(=O)NC1[C@@H](OC(=O)C(C)C)OC(COC(=O)C(C)C)[C@@H](OC(=O)C(C)C)[C@@H]1OC(=O)C(C)C (stereo partly drawn) [α-D-glucosamine pentaisobutyrate, α-D Glucosamine Pentaisobutyrate]",gel formation upon injection,[3]; [5],formation of an amorphous solid (gel) was seen
"CCC(=O)NC1[C@@H](OC(=O)CC)OC(COC(=O)CC)[C@@H](OC(=O)CC)[C@@H]1OC(=O)CC (stereo partly drawn) [α-D-glucosamine pentapropionate, α-D Glucosamine Pentapropionate]",gel formation upon injection,[3]; [5],formation of an amorphous solid (gel) was seen
"CCC(=O)OCC1O[C@H](O[C@@H]2C(COC(=O)CC)O[C@@H](OC(=O)CC)C(OC(=O)CC)[C@H]2OC(=O)CC)C(OC(=O)CC)[C@@H](OC(=O)CC)[C@@H]1OC(=O)CC (stereo partly drawn) [β maltose octapropionate, β-Maltose Octapropionate]",gel formation upon injection,[3]; [5],formation of an amorphous solid (gel) was seen
"CC(C)C(=O)OCC1O[C@H](O[C@@H]2C(COC(=O)C(C)C)O[C@@H](OC(=O)C(C)C)C(OC(=O)C(C)C)[C@H]2OC(=O)C(C)C)C(OC(=O)C(C)C)[C@@H](OC(=O)C(C)C)[C@@H]1OC(=O)C(C)C (stereo partly drawn) [β-maltose octaisobutyrate, β-Maltose Octaisobutyrate]",gel formation upon injection,[3]; [4],formed gels upon injection
Trehalose Octaisobutyrate,gel formation upon injection,[3]; [4],formed gels upon injection
